Assay [1] addresses T1, Sodium-dependent serotonin transporter (Homo sapiens, UniProt P31645). The assay is described as follows: Irreversible photoaffinity labeling of hemagglutinin-tagged human SERT expressed in LLCPK1 cells assessed as 10 uM (s)-citalopram-induced blocking of compound binding at 10 nM incubated for 1.5 hrs at 4 degC followed by irradiation with shortwave ultraviolet light for 5 mins by SDS-PAGE and autoradiography method. The following applies: LLC-PK1, tested as the 125I-labelled form. It is filed as cell-based.
Target sequence in this assay (P31645 whole entry, looked up): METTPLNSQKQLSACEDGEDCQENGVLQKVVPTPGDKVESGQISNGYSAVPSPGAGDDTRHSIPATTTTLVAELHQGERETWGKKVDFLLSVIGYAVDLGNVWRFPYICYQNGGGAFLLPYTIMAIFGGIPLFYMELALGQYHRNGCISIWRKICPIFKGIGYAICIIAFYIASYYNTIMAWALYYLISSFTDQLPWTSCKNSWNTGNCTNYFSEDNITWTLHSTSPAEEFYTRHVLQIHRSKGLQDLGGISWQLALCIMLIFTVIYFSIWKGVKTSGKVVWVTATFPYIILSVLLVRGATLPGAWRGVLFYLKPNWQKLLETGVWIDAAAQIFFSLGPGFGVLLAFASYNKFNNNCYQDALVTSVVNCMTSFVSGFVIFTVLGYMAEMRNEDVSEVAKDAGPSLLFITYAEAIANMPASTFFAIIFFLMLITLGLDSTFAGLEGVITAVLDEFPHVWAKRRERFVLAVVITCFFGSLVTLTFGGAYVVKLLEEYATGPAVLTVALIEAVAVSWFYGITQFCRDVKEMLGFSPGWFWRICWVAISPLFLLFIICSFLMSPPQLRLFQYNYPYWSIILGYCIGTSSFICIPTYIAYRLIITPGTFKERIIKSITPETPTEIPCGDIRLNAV

The target of assay [2] is T1, Sodium-dependent serotonin transporter. Put plainly: Irreversible photoaffinity labeling of hemagglutinin-tagged human SERT expressed in LLCPK1 cells at 10 nM incubated for 1.5 hrs at 4 degC followed by irradiation with shortwave ultraviolet light for 5 mins by SDS-PAGE and autoradiography method. It is filed as cell-based. As to conditions: LLC-PK1, tested as the 125I-labelled form.
Target sequence in this assay (P31645 whole entry, looked up): as above

Assay [3] addresses Sodium-dependent serotonin transporter (Homo sapiens, UniProt P31645, S438T). The format is cell-based, HEK293.
Assay [4] addresses T1, Sodium-dependent serotonin transporter. Put plainly: Inhibition of wild type human SERT expressed in HEK293 GripTite cells pre-incubated for 5 mins followed by [3H]5-HT addition by [3H]5-HT uptake assay. It is filed as cell-based.
Target sequence in this assay (P31645 whole entry): as the sequence (P31645 whole entry, looked up) above
The species named for the next assay is Homo sapiens. Put plainly: Resistance index, ratio of Ki for human SERT S438T mutant expressed in HEK293 GripTite cells to Ki for wild type human SERT expressed in HEK293 GripTite cells. The format is cell-based.

Activity calls are given as the source filed them. The rule behind the calls is not given here. Bounds are passed on as bounds.

Sodium-dependent serotonin transporter (Homo sapiens, UniProt P31645, S438T), sequence (P31645 whole entry S438T): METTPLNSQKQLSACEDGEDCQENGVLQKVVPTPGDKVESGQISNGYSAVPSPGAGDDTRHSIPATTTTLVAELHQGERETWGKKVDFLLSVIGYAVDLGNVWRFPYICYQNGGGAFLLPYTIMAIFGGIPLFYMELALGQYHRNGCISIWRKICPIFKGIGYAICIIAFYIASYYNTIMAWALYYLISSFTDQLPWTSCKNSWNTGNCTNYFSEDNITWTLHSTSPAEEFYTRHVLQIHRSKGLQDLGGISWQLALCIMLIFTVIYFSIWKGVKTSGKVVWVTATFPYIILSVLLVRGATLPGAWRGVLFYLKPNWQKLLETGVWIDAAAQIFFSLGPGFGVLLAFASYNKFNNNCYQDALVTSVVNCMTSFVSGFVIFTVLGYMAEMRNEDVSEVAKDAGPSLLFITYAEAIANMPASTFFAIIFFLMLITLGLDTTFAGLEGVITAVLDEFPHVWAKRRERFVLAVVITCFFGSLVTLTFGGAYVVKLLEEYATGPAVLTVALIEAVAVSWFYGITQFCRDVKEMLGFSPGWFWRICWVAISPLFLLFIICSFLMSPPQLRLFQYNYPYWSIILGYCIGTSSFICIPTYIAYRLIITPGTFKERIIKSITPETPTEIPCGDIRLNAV

One may read the inhibition as the drop in the measured response relative to a control, in per cent. As a reminder, the Ki is a measure of affinity in units of concentration, obtained from inhibition or displacement. A lower Ki goes with tighter binding. Regarding `CN(C)CCC[C@@]1(c2ccc(F)cc2)OCc2cc(CNC(=O)CCc3ccc(N=[N+]=[N-])c(I)c3)ccc21`, the inhibition in assay [1] is more than 99%. Also, the outcome in assay [2] was Active. The Ki in assay [3] came to 9880 nM; in assay [4] it was 38 nM.
In the case of `CN(CCC[C@@]1(c2ccc(F)cc2)OCc2cc(C#N)ccc21)CCc1ccc(N=[N+]=[N-])c(I)c1`, the inhibition in assay [1] was found to be 30%. Further, the outcome in assay [2] was Active. In addition, the figures for the Ki in assay [3] and in assay [4] were 3810 nM and 227 nM, respectively. In the assay filed under Homo sapiens, the Ratio Ki was 17.
As to `COC(=O)[C@@H]1C2CCC(C[C@@H]1c1ccc(Cl)cc1)N2CCCCc1ccc(N=[N+]=[N-])c(I)c1` (some centres undefined), in assay [2], the result was Active.
As for `CN(C)CCC[C@@]1(c2ccc(F)cc2)OCc2cc(CNC(=O)c3ccc(N=[N+]=[N-])c(I)c3)ccc21`, the inhibition in assay [1] was more than 99%. For the same compound, the outcome in assay [2] was Active. For the same compound, the values for the inhibition constant (Ki) in assay [3] and in assay [4] were 5700 nM and 24 nM, respectively.

The values above are taken from ChEMBL document CHEMBL3585319 (J Med Chem, 2015).
